According to ChEMBL document CHEMBL1201862, “PubChem BioAssay data set” (2004):
Activity calls are given as the source filed them.

Legend:
[1] = HEp-2 cell cytotoxicity, dose response, cytotoxicity control for RSV inhibitor project, HTS (AID 2410); format: functional; conditions: human respiratory syncytial virus
[2] = biological target: T1, Neuropeptides B/W receptor type 1 (Homo sapiens, UniProt P48145); assay: Fluorescence-based dose response cell-based high throughput screening assay to identify antagonists of the G-protein coupled receptor 7 (GPR7). [Related pubchem assays: 1952 (Screening assay (GPR7 antagonists).), 1880 (Summary AID.)]; format: functional
T1 sequence (P48145 whole entry): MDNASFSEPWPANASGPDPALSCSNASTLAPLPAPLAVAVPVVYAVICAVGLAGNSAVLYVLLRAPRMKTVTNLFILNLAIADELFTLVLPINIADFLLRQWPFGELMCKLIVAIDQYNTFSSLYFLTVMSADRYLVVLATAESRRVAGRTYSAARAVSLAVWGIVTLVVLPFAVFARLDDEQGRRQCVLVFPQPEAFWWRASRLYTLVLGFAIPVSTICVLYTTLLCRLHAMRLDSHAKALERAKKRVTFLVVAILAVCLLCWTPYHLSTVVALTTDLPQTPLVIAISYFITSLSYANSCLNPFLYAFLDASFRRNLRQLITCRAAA

[3] = biological target: Melanin-concentrating hormone receptor 1 (Homo sapiens, UniProt Q99705); assay: Fluorescence-based counterscreen for antagonists of the G-protein coupled receptor 7 (GPR7): cell-based high throughput dose response assay to identify antagonists of the melanin-concentrating hormone receptor 1 (MCHR1).; format: functional
Melanin-concentrating hormone receptor 1, sequence (Q99705 whole entry): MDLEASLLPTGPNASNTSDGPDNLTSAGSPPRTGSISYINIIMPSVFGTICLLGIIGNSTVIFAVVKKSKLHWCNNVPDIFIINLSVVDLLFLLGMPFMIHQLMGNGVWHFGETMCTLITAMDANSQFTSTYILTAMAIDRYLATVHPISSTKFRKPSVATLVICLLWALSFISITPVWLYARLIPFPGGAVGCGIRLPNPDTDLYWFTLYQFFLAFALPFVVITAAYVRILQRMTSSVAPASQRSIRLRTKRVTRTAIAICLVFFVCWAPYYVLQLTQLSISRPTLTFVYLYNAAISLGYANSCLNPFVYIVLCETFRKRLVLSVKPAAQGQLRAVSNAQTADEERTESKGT

[4] = biological target: Photoreceptor-specific nuclear receptor (Homo sapiens, UniProt Q9Y5X4); format: functional;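 also: potency for compounds that break the NR2E3 corepressor complex and count as activators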
Photoreceptor-specific nuclear receptor, sequence (Q9Y5X4 whole entry): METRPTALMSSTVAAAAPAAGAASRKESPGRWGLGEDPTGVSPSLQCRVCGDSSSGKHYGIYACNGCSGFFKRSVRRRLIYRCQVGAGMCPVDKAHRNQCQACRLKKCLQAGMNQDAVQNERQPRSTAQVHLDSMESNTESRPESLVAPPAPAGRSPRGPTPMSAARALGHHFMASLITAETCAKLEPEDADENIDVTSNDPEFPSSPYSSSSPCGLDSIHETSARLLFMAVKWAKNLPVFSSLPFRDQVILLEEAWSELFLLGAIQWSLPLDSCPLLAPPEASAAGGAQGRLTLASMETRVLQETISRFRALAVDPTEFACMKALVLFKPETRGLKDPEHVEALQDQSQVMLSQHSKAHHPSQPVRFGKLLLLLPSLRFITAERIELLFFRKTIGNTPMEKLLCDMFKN

[5] = biological target: Peroxisome proliferator-activated receptor gamma/Nuclear receptor corepressor 2 (Homo sapiens, UniProt P37231+Q9Y618); format: functional
Peroxisome proliferator-activated receptor gamma/Nuclear receptor corepressor 2, sequence (P37231 whole entry): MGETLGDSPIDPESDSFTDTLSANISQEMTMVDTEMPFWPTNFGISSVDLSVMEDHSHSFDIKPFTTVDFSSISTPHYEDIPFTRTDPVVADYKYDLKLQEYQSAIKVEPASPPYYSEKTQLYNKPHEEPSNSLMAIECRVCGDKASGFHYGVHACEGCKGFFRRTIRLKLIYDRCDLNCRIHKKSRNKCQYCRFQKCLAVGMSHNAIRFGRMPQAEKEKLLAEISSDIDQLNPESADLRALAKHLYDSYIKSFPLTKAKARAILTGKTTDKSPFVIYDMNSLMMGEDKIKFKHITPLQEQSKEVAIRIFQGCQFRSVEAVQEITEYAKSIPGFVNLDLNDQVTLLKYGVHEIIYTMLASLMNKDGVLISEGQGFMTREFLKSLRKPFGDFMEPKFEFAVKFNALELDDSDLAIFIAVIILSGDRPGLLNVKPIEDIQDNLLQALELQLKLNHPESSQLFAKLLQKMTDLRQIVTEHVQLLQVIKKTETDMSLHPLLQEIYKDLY
Peroxisome proliferator-activated receptor gamma/Nuclear receptor corepressor 2, sequence (Q9Y618 whole entry): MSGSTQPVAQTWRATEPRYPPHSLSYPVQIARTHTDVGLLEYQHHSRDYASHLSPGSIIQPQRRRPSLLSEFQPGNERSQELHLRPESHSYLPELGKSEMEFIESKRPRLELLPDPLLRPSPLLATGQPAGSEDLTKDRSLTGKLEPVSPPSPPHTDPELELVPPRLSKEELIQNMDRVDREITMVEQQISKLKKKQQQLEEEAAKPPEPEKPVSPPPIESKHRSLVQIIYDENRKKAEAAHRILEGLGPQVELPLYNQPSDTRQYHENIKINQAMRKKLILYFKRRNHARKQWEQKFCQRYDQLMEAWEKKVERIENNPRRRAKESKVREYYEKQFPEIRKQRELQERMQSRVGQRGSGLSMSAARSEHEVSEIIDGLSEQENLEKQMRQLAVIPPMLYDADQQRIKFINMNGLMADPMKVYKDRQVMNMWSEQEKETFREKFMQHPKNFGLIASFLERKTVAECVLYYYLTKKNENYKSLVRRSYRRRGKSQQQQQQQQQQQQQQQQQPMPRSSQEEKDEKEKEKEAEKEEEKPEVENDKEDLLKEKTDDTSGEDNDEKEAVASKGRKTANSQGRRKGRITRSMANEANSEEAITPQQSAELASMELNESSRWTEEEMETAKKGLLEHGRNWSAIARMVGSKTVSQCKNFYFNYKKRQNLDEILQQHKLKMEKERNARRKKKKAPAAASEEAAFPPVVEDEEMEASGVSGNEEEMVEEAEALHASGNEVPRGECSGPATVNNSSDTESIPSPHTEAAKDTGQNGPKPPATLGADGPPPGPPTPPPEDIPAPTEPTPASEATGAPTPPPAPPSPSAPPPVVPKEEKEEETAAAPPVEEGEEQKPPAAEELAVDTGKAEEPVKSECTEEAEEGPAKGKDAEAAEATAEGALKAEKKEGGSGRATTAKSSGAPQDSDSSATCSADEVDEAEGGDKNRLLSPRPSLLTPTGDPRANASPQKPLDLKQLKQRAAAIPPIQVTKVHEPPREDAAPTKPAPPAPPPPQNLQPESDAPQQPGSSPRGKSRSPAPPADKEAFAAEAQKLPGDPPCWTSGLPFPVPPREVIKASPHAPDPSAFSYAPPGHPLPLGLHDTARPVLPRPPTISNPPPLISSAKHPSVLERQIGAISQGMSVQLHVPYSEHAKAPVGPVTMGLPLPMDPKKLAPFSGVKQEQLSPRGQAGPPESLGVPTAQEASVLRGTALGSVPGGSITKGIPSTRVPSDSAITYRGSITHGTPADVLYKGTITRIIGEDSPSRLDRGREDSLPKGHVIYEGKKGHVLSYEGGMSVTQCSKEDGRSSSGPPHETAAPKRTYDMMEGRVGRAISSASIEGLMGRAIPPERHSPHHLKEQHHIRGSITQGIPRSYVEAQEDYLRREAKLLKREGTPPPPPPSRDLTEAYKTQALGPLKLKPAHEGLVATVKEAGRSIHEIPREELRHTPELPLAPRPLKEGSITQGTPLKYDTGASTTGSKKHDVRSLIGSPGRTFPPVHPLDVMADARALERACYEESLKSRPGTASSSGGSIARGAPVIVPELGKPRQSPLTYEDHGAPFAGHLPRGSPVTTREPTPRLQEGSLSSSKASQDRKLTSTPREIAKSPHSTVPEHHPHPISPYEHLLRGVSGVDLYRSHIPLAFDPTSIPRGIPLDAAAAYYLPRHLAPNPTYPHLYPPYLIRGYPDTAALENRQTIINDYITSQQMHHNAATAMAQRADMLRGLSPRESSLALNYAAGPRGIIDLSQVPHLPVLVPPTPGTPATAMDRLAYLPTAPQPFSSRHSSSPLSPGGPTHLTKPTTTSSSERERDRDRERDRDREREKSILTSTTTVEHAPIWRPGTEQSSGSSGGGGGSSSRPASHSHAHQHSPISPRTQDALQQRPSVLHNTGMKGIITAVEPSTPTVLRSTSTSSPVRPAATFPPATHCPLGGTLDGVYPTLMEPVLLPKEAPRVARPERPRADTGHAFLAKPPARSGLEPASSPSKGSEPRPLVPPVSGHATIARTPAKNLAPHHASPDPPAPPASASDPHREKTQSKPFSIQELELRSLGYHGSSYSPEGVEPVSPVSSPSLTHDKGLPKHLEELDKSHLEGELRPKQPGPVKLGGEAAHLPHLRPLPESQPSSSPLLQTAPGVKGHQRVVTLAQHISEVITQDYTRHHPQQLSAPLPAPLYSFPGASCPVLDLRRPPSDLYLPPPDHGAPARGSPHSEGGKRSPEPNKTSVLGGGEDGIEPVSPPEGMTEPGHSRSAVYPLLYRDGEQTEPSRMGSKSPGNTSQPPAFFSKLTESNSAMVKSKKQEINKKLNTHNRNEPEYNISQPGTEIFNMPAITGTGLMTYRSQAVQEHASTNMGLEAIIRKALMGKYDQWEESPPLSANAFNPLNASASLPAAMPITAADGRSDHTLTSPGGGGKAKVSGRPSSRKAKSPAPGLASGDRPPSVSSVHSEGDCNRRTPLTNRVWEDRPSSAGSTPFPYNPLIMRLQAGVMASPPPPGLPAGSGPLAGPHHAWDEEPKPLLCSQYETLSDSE

[6] = inhibitors of firefly luciferase expression or activity, dose response, H4 neuroglioma cells, luminescence (AID 1990); format: functional, cell-based
[7] = Luminescence Cell-Based Dose Response HTS to Identify Inhibitors of 5'UTR Stem-Loop Driven Prion Protein mRNA Translation in H4 Neuroglioblastoma Cells. [Related pubchem assays: 1827 (Project Summary), 1813 (Primary HTS)]; format: functional
[8] = inhibitors of SNCA 5'UTR-driven reporter translation, confirmation, H4 neuroglioma cells, luminescence (AID 1988); format: functional, cell-based
[9] = biological target: Luciferin 4-monooxygenase (Photinus pyralis, UniProt P08659); assay: firefly luciferase enzyme inhibitors, dose response, biochemical, luminescence (AID 1891)
Luciferin 4-monooxygenase, sequence (P08659 whole entry): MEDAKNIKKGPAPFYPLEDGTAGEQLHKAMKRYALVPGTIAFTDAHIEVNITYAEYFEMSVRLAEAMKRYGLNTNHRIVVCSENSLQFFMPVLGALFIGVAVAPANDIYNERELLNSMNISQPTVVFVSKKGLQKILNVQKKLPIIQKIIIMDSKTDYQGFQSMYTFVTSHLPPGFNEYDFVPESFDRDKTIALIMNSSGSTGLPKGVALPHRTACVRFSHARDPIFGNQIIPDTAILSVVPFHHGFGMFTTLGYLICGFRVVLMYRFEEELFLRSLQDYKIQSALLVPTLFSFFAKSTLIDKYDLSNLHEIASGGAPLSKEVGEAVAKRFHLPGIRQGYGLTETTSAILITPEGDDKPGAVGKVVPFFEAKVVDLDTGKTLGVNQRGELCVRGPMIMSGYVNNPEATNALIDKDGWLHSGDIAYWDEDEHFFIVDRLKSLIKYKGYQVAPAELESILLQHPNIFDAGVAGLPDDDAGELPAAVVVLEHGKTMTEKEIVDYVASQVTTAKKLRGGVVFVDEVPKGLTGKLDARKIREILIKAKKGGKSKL

[10] = Luminescence Cell-Based Dose Confirmation HTS to Identify Inhibitors of Platelet Dense Granule Release. [Related pubchem assays: 1663 (Primary HTS), 1678 (Summary of Project)]; format: functional
[11] = Luminescence-based counterscreen assay for KLF5 inhibitors: dose response cell-based high throughput screening assay to identify cytotoxic compounds using the IEC-6 intestinal epithelial cell line. [Related pubchem assays: 1700 (Primary screen.), 1834 (Confirmation screen.), 1858 (Summary AID.), 1905 (Counterscreen.)]; format: functional
[12] = A549 cell cytotoxicity, dose response, cytotoxicity control, plate reader, cherry-pick, antagonist series (AID 743412); format: functional, cell-based
[13] = HepG2 cell cytotoxicity, dose response, cytotoxicity control, plate reader, cherry-pick, antagonist series (AID 743416); format: functional, cell-based
[14] = LGR2 antagonists, dose response, cell-based, HEK293, CRE-luciferase reporter, cherry pick, set 2 (AID 743343); format: functional;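 also: transfected cells were stimulated with diluted bursicon conditioned medium after compound addition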
[15] = MC4R antagonists, dose response, counter-screen for LGR2 antagonist project, cell-based, plate reader, cherry pick (AID 743444); format: functional;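 also: transfected HEK 293 cells stimulated with alpha-MSH peptide; potency of inhibitors of the alpha-MSH evoked signal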
[16] = HEK293 cell cytotoxicity, dose response, cytotoxicity control, plate reader, cherry-picked samples (AID 743446); format: functional, cell-based

In the case of `COC(=O)C1=C(C)N(Cc2ccco2)C(=O)N[C@H]1c1ccccc1`, the CC50 [1] is reported as > 50 µM (active) and the IC50 (cells) is reported as 21.8 µM (active).

With `COc1ccc(-c2oc(=O)c3cc(OC)c(OC)cc3c2/C=C/c2cccc([N+](=O)[O-])c2)cc1` the CC50 [1] was 38 µM (active) and the IC50 (cells) was 14.8 µM (active).

With `O=P(Cc1cc(Br)cc(Br)c1OCCO)(c1ccccc1)c1ccccc1` the IC50 [2] was > 43.8 µM (not active) and the IC50 [3] was 9.96 µM (active).

In the case of `CCOc1cccc(C2C(C(=O)c3ccc(C)o3)=C(O)C(=O)N2CCCn2ccnc2)c1` (centres undefined), the IC50 [4] is reported as > 39.8 µM (not active) and the IC50 [5] is reported as 16.8 µM (not active).

In the case of `CCc1ccn2cc(-c3ccc4c(c3)OCO4)nc2c1`, the EC50 [6] is reported as 0.239 µM (active), the EC50 [7] is reported as < 0.1 µM (active) and the EC50 [8] is reported as 0.158 µM (active). The EC50 [9] was 2.16 µM (active), the EC50 [10] was 8.85 µM (active) and the IC50 [11] was 21.5 µM (not active). The AC50 [12] was > 52 µM (inactive), the AC50 [13] was > 52 µM (inactive) and the AC50 [14] was 1.22 µM (active). The AC50 [15] was 1.5 µM (active) and the AC50 [16] was > 52 µM (inactive).
